Consider 2 compounds from paper PMC5562305, “Impact of novel palmitoylated prolactin-releasing peptide analogs on metabolic changes in mice with diet-induced obesity” (PLoS ONE, 2017).

Non-standard residues stand in square brackets, D forms with d. Residues, ends and D or L forms follow the SMILES beside them. NMeF = CN[C@@H](Cc1ccccc1)C(=O)O

The assay deals with T1, human NPFF2 (Homo sapiens, UniProt Q9Y5X5).
T1 construct: purchased Perkin Elmer; host or cells: CHO-K1 cell membranes
Briefly: Competitive binding of 125I-1DMe to human NPFF2 receptor membranes. As to conditions: membranes of CHO-K1 cells overexpressing NPFF2, 0.1 nM radioligand, Cheng-Prusoff; mean ± SEM; SEM. The method, then: CHO-K1 cells expressing the GPR10 receptor (Thermo Fisher Scientific Inc., Waltham, MA, USA) were grown according to the manufacturer's instructions. Saturation and competitive binding experiments were performed according to the methods of Motulsky and Neubig. […] The experiments were performed on plated cells that were incubated for 60 min at 25°C. Non-specific binding was determined using 10^−5 M PrRP31. The binding assays involving human NPFF2 receptor membranes obtained from Perkin Elmer were performed as described in [18].
Data are presented as the means ± SEM. The competitive binding curves were plotted using GraphPad software (San Diego, CA, USA), and the best fits were compared for single-binding-site models (IC50 values were obtained from nonlinear regression analysis). Inhibition constants (Ki) were calculated from the IC50 values using the Cheng-Prusoff equation [23]. The concentration of the radioligand was 0.1 nM for cell membranes of CHO-K1 cells overexpressing NPFF2 and 0.03 nM for CHO-K1 cells overexpressing GPR10.

As usually defined, the Ki is the dissociation constant of the complex between target and ligand, obtained from inhibition or displacement. Low readings indicate a stronger hold on the target, high ones a looser hold on the target.

T1 sequence (Q9Y5X5 whole entry): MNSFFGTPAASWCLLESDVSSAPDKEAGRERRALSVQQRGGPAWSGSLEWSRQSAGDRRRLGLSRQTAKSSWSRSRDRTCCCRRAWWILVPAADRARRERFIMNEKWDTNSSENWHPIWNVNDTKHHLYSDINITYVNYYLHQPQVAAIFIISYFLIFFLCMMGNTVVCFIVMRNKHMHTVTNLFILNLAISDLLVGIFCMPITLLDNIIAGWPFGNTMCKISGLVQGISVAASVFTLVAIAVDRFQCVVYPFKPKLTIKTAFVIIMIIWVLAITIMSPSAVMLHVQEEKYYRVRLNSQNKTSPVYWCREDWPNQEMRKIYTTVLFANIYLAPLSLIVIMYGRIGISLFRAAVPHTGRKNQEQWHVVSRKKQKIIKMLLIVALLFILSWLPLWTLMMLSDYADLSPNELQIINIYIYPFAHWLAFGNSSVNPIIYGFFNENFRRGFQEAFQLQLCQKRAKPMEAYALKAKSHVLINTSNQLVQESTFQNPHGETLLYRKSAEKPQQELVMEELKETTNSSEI

Compound `CC[C@H](C)[C@H](NC(=O)CNC(=O)[C@H](CCCNC(=N)N)NC(=O)[C@H](CO)NC(=O)[C@H](C)NC(=O)[C@H](Cc1ccc(O)cc1)NC(=O)[C@H](Cc1c[nH]c2ccccc12)NC(=O)[C@H](C)NC(=O)[C@@H]1CCCN1C(=O)[C@H](CC(N)=O)NC(=O)[C@@H](NC(=O)[C@H](CC(=O)O)NC(=O)[C@@H]1CCCN1C(=O)[C@@H](NC(=O)[C@H](CCCNC(=N)N)NC(=O)[C@@H](NC(=O)[C@H](CCC(=O)O)NC(=O)[C@H](CCSC)NC(=O)[C@H](CO)NC(=O)[C@H](Cc1c[nH]cn1)NC(=O)[C@H](CCCNC(=N)N)NC(=O)[C@H](Cc1c[nH]cn1)NC(=O)[C@@H](NC(=O)[C@H](CCCNC(=N)N)NC(=O)[C@@H](N)CO)[C@@H](C)O)[C@@H](C)CC)[C@@H](C)O)[C@@H](C)CC)C(=O)N[C@@H](CCCNC(=N)N)C(=O)N1CCC[C@H]1C(=O)N[C@H](C(=O)NCC(=O)N[C@@H](CCCNC(=N)N)C(=O)N[C@@H](Cc1ccccc1)C(N)=O)C(C)C` [human PrRP31, reference compound] returned a Ki of 50 ± 24.3 nM.

Compound `CC(C)C[C@H](NC(=O)[C@H](N)Cc1ccc(O)cc1)C(=O)N(C)[C@@H](Cc1ccccc1)C(=O)N[C@@H](CCC(N)=O)C(=O)N1CCC[C@H]1C(=O)N[C@@H](CCC(N)=O)C(=O)N[C@@H](CCCN=C(N)N)C(=O)N[C@@H](Cc1ccccc1)C(N)=O` [1DMe, reference compound] (H-[dY]L[NMeF]QPQRF-NH2) displayed a Ki of 1.8 ± 0.54 nM.
